Measured values taken from patent EP4806427A2, “TOPICAL PHARMACEUTICAL COMPOSITIONS” (priority 2015, dated 2016).

Columns and labels:
AhR target gene, cyp1a1 = assay: Expression of AhR target gene in keratinocytes and leukocytes; assay type: cell-based; settings: primary human keratinocytes, and human or rodent leukocytes
AhR pathway = assay: Target profiling; assay type: cell-based; settings: intestinal human colon adenocarcinoma
[1] = Gao et al. 2011; cited from earlier work
[2] = 28 day twice daily topical administration: toxicokinetics, skin concentrations, dermal irritancy and toxicity; assay type: in vivo, Göttingen minipigs
Description: Following dose application on each dosing day, the dose sites were semi-occluded for approximately 20 ± 1 hours from the first dose and then gently washed before the next dose was applied.

[3] = Solubility of the active ingredient in different solvents; assay type: physicochemical
Description: The solubility of the active ingredient in different solvents was determined. […] The following formulations were prepared with 5%, 10%, 15% and 20% MCT (Formulations 15-18). Two formulations (Formulations 19 and 20) were also prepared where Polawax (a proprietary blend of cetostearyl alcohol and emulsifiers) was replaced with cetostearyl alcohol and additional emulsifier.

[4] = minipig, topical or ocular, 60 mg/kg/day

CC(C)c1c(O)cc(/C=C/c2ccccc2)cc1O [3,5-Dihydroxy-4-isopropyl-trans-stilbene]
expression of the AhR target gene, cyp1a1 (AhR target gene, cyp1a1): induce the expression | effect on the AhR pathway (AhR pathway): activator | sensitivity to oxidation and photo degradation [1]: sensitive to oxidation and photo degradation | No Observed Adverse Effect Level (NOAEL) for dermal irritation or systemic toxicity ([2]; 28 days, twice daily topical, ~10% of total body surface area, highest dose tested): 3 % (w/w) | Cmax Day 28 ([2]; Male, 60 mg/kg/day, 40320 min): 0.845 ng/mL | dermal irritation and systemic toxicity ([2]; minipig, in vivo): no dermal irritation or systemic toxicity | gender-averaged skin concentration at necropsy, epidermis/upper dermis [2, 4]: 8265 ng/g | gender-averaged skin concentration at necropsy, lower dermis [2, 4]: 1830 ng/g | solubility ([3]; in medium chain triglycerides (MCT)): good solubility | solubility ([3]; in water): not soluble in water
